We go through 17 compounds from patent publication US9511134B2, “Inducing immune responses to influenza virus using polypeptide and nucleic acid compositions” (priority 2006, dated 2016).

Experiment in all cases: biochemical
Format in all cases: binding

Experiment [1] deals with T1, DRB1*0401 (Homo sapiens, UniProt P01903+P01911, A100K/A169T/F76Y/I96L/K127E/L162R/M171V/N62H/P40V/Q125Y/R42H/S133A/S149N/S66Y/V115G/V209L/W38E).
T1 construct: made in house; host or cells: EBV-transformed homozygous human B cell lines, transfected fibroblasts or single-allele 721.221 transfectants
The following applies: read-out: IC50 nM to purified HLA DRB1*0401.

The target of experiment [2] is T2, DRB1*0101 (Homo sapiens, UniProt P01903+P01911, A100R/D57E/F55L/F60I/F76Y/I96L/L162R/M171V/P40L/Q125E/R42F/V115G/Y59C).
T2 construct: made in house; host or cells: EBV-transformed homozygous human B cell lines, transfected fibroblasts or single-allele 721.221 transfectants
Conditions: IC50 nM to purified HLA DRB1*0101.

In experiment [3] the target is T3, DRB1*1501 (Homo sapiens, UniProt P01903+P01911).
T3 construct: made in house; host or cells: EBV-transformed homozygous human B cell lines, transfected fibroblasts or single-allele 721.221 transfectants
The following applies: read-out: IC50 nM to purified HLA DRB1*1501.

Experiment [4] concerns the target DRB1*1302 (Homo sapiens, UniProt P01903+P01911, A100E/A169T/K41T/L162R/M171V/P40S/Q125H/Q178H/Q39Y/Q99D/R42S/S66N/T262R/V115G/W38E/Y61H). Conditions: read-out: IC50 nM to purified HLA DRB1*1302.

Sequence of DRB1*1302 (P01903 26-254 limits assumed, other chains not shown): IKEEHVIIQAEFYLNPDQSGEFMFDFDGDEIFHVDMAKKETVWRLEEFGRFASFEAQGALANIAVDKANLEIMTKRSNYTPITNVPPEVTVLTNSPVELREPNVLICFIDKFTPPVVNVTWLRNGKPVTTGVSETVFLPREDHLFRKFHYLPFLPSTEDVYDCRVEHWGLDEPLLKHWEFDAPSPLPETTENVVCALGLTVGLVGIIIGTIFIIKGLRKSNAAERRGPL

What is called IC50 is the concentration that inhibits the measured activity by half. As to `CC[C@H](C)[C@H](NC(=O)[C@@H](NC(=O)[C@H](CCSC)NC(=O)[C@H](CC(=O)O)NC(=O)[C@@H](NC(=O)[C@H](CC(C)C)NC(=O)[C@H](Cc1ccc(O)cc1)NC(=O)[C@H](CCCNC(=N)N)NC(=O)[C@H](CO)NC(=O)[C@H](C)N)[C@@H](C)O)[C@@H](C)O)C(=O)N[C@@H](CCC(=O)O)C(=O)N[C@@H](CCC(=O)O)C(=O)N[C@@H](CCSC)C(=O)N[C@@H](CO)C(=O)N[C@@H](CCCNC(=N)N)C(=O)O` [Flu.NS1.89], the IC50 stood at 67 nM in experiment [1] and 6030 nM in experiment [2].

On to `CC[C@H](C)[C@H](NC(=O)[C@H](CC(C)C)NC(=O)[C@@H](NC(=O)[C@H](CCC(=O)O)NC(=O)[C@H](CC(C)C)NC(=O)[C@H](CCCNC(=N)N)NC(=O)[C@H](CC(=O)O)NC(=O)[C@H](Cc1ccccc1)NC(=O)[C@@H](NC(=O)[C@@H](NC(=O)[C@H](CO)NC(=O)[C@H](Cc1ccccc1)NC(=O)[C@@H](N)CC(N)=O)C(C)C)[C@@H](C)CC)[C@@H](C)O)C(=O)N[C@@H](CC(C)C)C(=O)N[C@@H](CC(C)C)C(=O)O` [Flu.NS1.136], for which the IC50 was 6930 nM in experiment [3] and 17 nM in experiment [2]. Turning to `CC[C@H](C)[C@H](NC(=O)[C@H](CCC(=O)O)NC(=O)[C@H](CCSC)NC(=O)[C@H](CCC(=O)O)NC(=O)[C@H](CCC(=O)O)NC(=O)[C@@H](N)CCCCN)C(=O)N[C@H](C(=O)N[C@H](C(=O)N[C@@H](Cc1c[nH]cn1)C(=O)N[C@@H](Cc1ccccc1)C(=O)N[C@@H](CCC(N)=O)C(=O)N[C@@H](CCCNC(=N)N)C(=O)N[C@@H](CCCCN)C(=O)N[C@@H](CCCNC(=N)N)C(=O)N[C@@H](CCCNC(=N)N)C(=O)O)[C@@H](C)O)[C@@H](C)O` [Flu.PB1.179], half-maximal inhibition in experiment [2] (IC50) required 1400 nM. Turning to `CC(C)C[C@H](NC(=O)[C@H](Cc1c[nH]cn1)NC(=O)[C@H](CO)NC(=O)[C@@H](N)CCCNC(=N)N)C(=O)N[C@@H](CCCNC(=N)N)C(=O)N[C@@H](CC(N)=O)C(=O)N[C@@H](CC(=O)O)C(=O)N[C@H](C(=O)N[C@@H](CC(=O)O)C(=O)N[C@H](C(=O)N[C@H](C(=O)N[C@@H](CC(N)=O)C(=O)N[C@@H](Cc1ccccc1)C(=O)N[C@H](C(=O)N[C@@H](CO)C(=O)O)C(C)C)C(C)C)C(C)C)[C@@H](C)O` [Flu.PA.511], in experiment [1], the IC50 worked out at 200 nM.

`CC(C)C[C@H](NC(=O)CNC(=O)[C@@H](NC(=O)[C@H](C)NC(=O)[C@H](CC(C)C)NC(=O)[C@@H](NC(=O)[C@H](CC(C)C)NC(=O)[C@H](CCCNC(=N)N)NC(=O)[C@@H](N)CC(N)=O)C(C)C)[C@@H](C)O)C(=O)N[C@@H](CCCNC(=N)N)C(=O)N[C@@H](CC(N)=O)C(=O)N[C@@H](CO)C(=O)N1CCC[C@H]1C(=O)N[C@@H](CCC(N)=O)C(=O)N[C@@H](CCCNC(=N)N)C(=O)O` [Flu.HA.325]: 69 nM corresponded to half-maximal inhibition in experiment [2] (IC50). `CC[C@H](C)[C@H](NC(=O)[C@H](CCC(=O)O)NC(=O)[C@H](CCC(N)=O)NC(=O)[C@H](CCC(=O)O)NC(=O)[C@@H](NC(=O)[C@H](CCC(=O)O)NC(=O)[C@H](Cc1ccccc1)NC(=O)[C@@H](N)CC(C)C)C(C)C)C(=O)N[C@@H](CCCNC(=N)N)C(=O)N[C@H](C(=O)N[C@@H](Cc1ccccc1)C(=O)N[C@@H](CO)C(=O)N[C@@H](Cc1ccccc1)C(=O)N[C@@H](CCC(N)=O)C(=O)N[C@@H](CC(C)C)C(=O)O)[C@@H](C)O` [Flu.NS2.182]: in experiment [1], the IC50 worked out at 8800 nM. `CC[C@H](C)[C@H](NC(=O)[C@H](C)NC(=O)[C@H](CC(=O)O)NC(=O)[C@H](CC(N)=O)NC(=O)[C@@H]1CCCN1C(=O)[C@H](CCCCN)NC(=O)[C@H](CC(C)C)NC(=O)[C@@H](NC(=O)[C@@H](NC(=O)[C@H](Cc1c[nH]c2ccccc12)NC(=O)[C@H](Cc1ccccc1)NC(=O)[C@H](Cc1ccccc1)NC(=O)[C@H](CCC(=O)O)NC(=O)[C@H](CCSC)NC(=O)[C@@H](N)CCCNC(=N)N)[C@@H](C)O)[C@@H](C)CC)C(=O)O` [Flu.HA.241] came in with an IC50 in experiment [2] of 62 nM.

`CC[C@H](C)[C@H](NC(=O)[C@@H](NC(=O)[C@H](CCC(=O)O)NC(=O)[C@H](CCSC)NC(=O)[C@@H](N)[C@@H](C)O)C(C)C)C(=O)N[C@@H](CCC(N)=O)C(=O)N[C@@H](CCC(N)=O)C(=O)N[C@H](C(=O)N[C@@H](CCCNC(=N)N)C(=O)N[C@H](C(=O)N[C@@H](CC(=O)O)C(=O)N[C@@H](CCCCN)C(=O)N[C@@H](CC(C)C)C(=O)N[C@H](C(=O)N[C@@H](CCC(N)=O)C(=O)O)[C@@H](C)O)C(C)C)[C@@H](C)O` [Flu.PB1.113]: the IC50 in experiment [4] is 180 nM.

For the compound `CC[C@H](C)[C@H](NC(=O)CNC(=O)[C@@H](NC(=O)[C@@H](N)CCSC)[C@@H](C)CC)C(=O)N[C@@H](CC(C)C)C(=O)N1CCC[C@H]1C(=O)N[C@@H](CC(=O)O)C(=O)N[C@@H](CCSC)C(=O)N[C@H](C(=O)N1CCC[C@H]1C(=O)N[C@@H](CO)C(=O)N[C@H](C(=O)N[C@@H](CCC(=O)O)C(=O)N[C@@H](CCSC)C(=O)N[C@@H](CO)C(=O)O)[C@@H](C)O)[C@@H](C)O` [Flu.PB2.463], the IC50 in experiment [1] came out at 31 nM. Regarding `CC(C)C[C@H](NC(=O)[C@H](CCCCN)NC(=O)[C@@H](NC(=O)[C@H](CO)NC(=O)[C@H](C)NC(=O)[C@@H](NC(=O)[C@H](C)NC(=O)[C@H](CCCCN)NC(=O)[C@H](CCC(=O)O)NC(=O)[C@@H](NC(=O)[C@H](CC(C)C)NC(=O)[C@H](Cc1ccccc1)NC(=O)[C@H](CC(N)=O)NC(=O)[C@@H](NC(=O)[C@@H](N)CC(N)=O)[C@@H](C)O)[C@@H](C)O)C(C)C)C(C)C)C(=O)N[C@@H](C)C(=O)O` [Flu.NA.51], the half-maximal inhibitory concentration (IC50) in experiment [3] came out at 47 nM. Consider `CC[C@H](C)[C@H](NC(=O)CNC(=O)[C@H](CCCNC(=N)N)NC(=O)[C@H](CCC(N)=O)NC(=O)[C@H](CO)NC(=O)[C@@H](NC(=O)[C@H](CC(N)=O)NC(=O)[C@H](CC(C)C)NC(=O)[C@@H](NC(=O)[C@H](CO)NC(=O)[C@@H](N)CCCNC(=N)N)[C@@H](C)CC)[C@@H](C)O)C(=O)N[C@@H](CC(C)C)C(=O)N[C@@H](CCC(=O)O)C(=O)N[C@@H](CC(=O)O)C(=O)N[C@@H](CCC(=O)O)C(=O)O` [Flu.PB1.675], for which the values for the IC50 in experiment [4] and in experiment [2] were 71 nM and 94 nM, respectively. Regarding `CC[C@H](C)[C@H](NC(=O)[C@H](C)NC(=O)[C@H](CC(=O)O)NC(=O)[C@H](CC(N)=O)NC(=O)[C@@H]1CCCN1C(=O)[C@H](CCCCN)NC(=O)[C@H](CC(C)C)NC(=O)[C@@H](NC(=O)[C@@H](NC(=O)[C@@H](N)Cc1c[nH]c2ccccc12)[C@@H](C)O)[C@@H](C)CC)C(=O)N[C@@H](CC(N)=O)C(=O)N[C@@H](Cc1ccccc1)C(=O)N[C@@H](CCC(=O)O)C(=O)N[C@@H](CO)C(=O)N[C@@H](CC(N)=O)C(=O)O` [Flu.HA.246], the IC50 in experiment [4] is 31 nM. The compound `CC[C@H](C)[C@H](NC(=O)[C@H](CCCCN)NC(=O)[C@@H](N)Cc1c[nH]cn1)C(=O)N[C@@H](Cc1ccccc1)C(=O)N[C@@H](CCCCN)C(=O)N[C@@H](CCSC)C(=O)N[C@@H](CCC(=O)O)C(=O)N[C@@H](CCCCN)C(=O)NCC(=O)N[C@@H](CCCCN)C(=O)N[C@H](C(=O)N[C@H](C(=O)N[C@@H](CCCCN)C(=O)N[C@@H](CO)C(=O)N[C@H](C(=O)N[C@@H](CCC(=O)O)C(=O)N[C@@H](CC(C)C)C(=O)O)C(C)C)C(C)C)C(C)C` [Flu.NA.233] showed an IC50 in experiment [2] of 64 nM. Take `CSCC[C@H](NC(=O)[C@H](CC(C)C)NC(=O)[C@H](CCC(=O)O)NC(=O)[C@@H](N)Cc1c[nH]c2ccccc12)C(=O)N[C@@H](CC(=O)O)C(=O)N[C@@H](CCC(=O)O)C(=O)N[C@@H](CC(=O)O)C(=O)N[C@@H](Cc1ccc(O)cc1)C(=O)N[C@@H](CCC(N)=O)C(=O)NCC(=O)N[C@@H](CCCNC(=N)N)C(=O)N[C@@H](CC(C)C)C(=O)N[C@@H](CS)C(=O)N[C@@H](CC(N)=O)C(=O)N1CCC[C@H]1C(=O)O` [Flu.PB1.616]: the half-inhibitory concentration (IC50) in experiment [1] worked out at 480 nM. `CSCC[C@H](NC(=O)[C@H](CO)NC(=O)[C@H](Cc1ccccc1)NC(=O)[C@H](CC(N)=O)NC(=O)[C@H](C)NC(=O)[C@@H](N)C(C)C)C(=O)N[C@@H](CCC(=O)O)C(=O)N[C@@H](CC(C)C)C(=O)N1CCC[C@H]1C(=O)N[C@@H](CO)C(=O)N[C@@H](Cc1ccccc1)C(=O)NCC(=O)N[C@H](C(=O)N[C@@H](CO)C(=O)NCC(=O)O)C(C)C` [Flu.PB1.505]: the IC50 in experiment [1] stood at 17 nM; in experiment [2], 20 nM. On to `CC[C@H](C)[C@H](NC(=O)[C@H](Cc1ccc(O)cc1)NC(=O)[C@@H](NC(=O)[C@@H](NC(=O)[C@@H]1CCCN1)[C@@H](C)O)[C@@H](C)O)C(=O)N[C@@H](CO)C(=O)N[C@H](C(=O)NCC(=O)N[C@H](C(=O)N[C@@H](CO)C(=O)N[C@H](C(=O)N[C@@H](CC(C)C)C(=O)N[C@@H](CC(N)=O)C(=O)N[C@@H](CCC(N)=O)C(=O)N[C@@H](CCCNC(=N)N)C(=O)N[C@@H](CC(C)C)C(=O)O)[C@@H](C)O)[C@@H](C)O)C(C)C` [Flu.HA.210], for which the IC50 in experiment [1] turned out to be 59 nM; in experiment [4], 957 nM; in experiment [2] it was 190 nM. For the compound `CC[C@H](C)[C@H](NC(=O)[C@@H](NC(=O)[C@@H](N)CC(=O)O)C(C)C)C(=O)N[C@@H](CCSC)C(=O)N[C@@H](CCC(=O)O)C(=O)N[C@H](C(=O)N[C@H](C(=O)N[C@@H](Cc1ccccc1)C(=O)N1CCC[C@H]1C(=O)N[C@@H](CC(N)=O)C(=O)N[C@@H](CCC(=O)O)C(=O)N[C@H](C(=O)NCC(=O)N[C@@H](C)C(=O)N[C@@H](CCCNC(=N)N)C(=O)O)C(C)C)C(C)C)C(C)C` [Flu.PB2.164], the IC50 in experiment [1] was determined as 1100 nM.
